Laboratory results taken from patent US11685741B2, “Fluorescent probes” (University of Massachusetts, priority 2017, dated 2023).
“And” between values parts separate entries of the source, which are not always exact repeats. Identical values can stand only once. “Also recorded” adds a separate entry of the source.

Key:
[1] = system: cells in the culture experiments; experiment: Cell permeability and toxicity in the culture experiments; type: cell-based
[2] = system: Bovine aortic endothelial cells (BAEC); experiment: Confocal imaging of Fe3+ with RhHPA in BAEC cells; type: cell-based
Protocol: Primary cultured Bovine aortic endothelial cells (BAEC) were passaged in Endothelial Basal Medium (Lonza) containing 5% fetal bovine serum. Before the experiment, the cells were cultured to about 8th generation. For experiment preparation, the cells were routinely subcultured using 0.05% trypsin-EDTA solution. The cells were seeded on the 25 cm^2 flask and medium change every two days until a 70% confluency before transferring into disks. The cells were seeded on the 1 cm^2 disk and a medium change the next day.
To evaluate the ability of RhHPA to capture Fe^3+ ions in cells, BAEC cells were incubated with the sensor (10 μM) for 30 min.
BAEC cells were incubated with 10 μM of ferric chloride (FeCl3) at 37° C. for overnight, then 10 μM of RhHPA was added to BAEC cells and was incubated at 37° C. for 30 min.
For the second control experiment, an Fe^3+-chelator SIH was added to iron-loaded and non-iron-loaded cells with RhHPA.
BAEC cells (without Fe^3+ treatment) were treated with RhHPA, MitoTracker Green FM and LysoTracker blue DND-22. As shown in FIG. 20A to FIG. 20H, there are partial colocalization between RhHPA-Fe^3+ and the MitoTracker (FIG. 20E) as well as that between RhHPA-Fe^3+ and the LysoTracker (FIG. 20F); however, a […] colocalization was observed among RhHPA-Fe^3+, MitoTracker and LysoTracker (FIG. 20G).

[3] = Metal ion sensing: UV-vis and fluorescence response to Fe3+ and other metal ions; conditions: one equivalent Fe^3+, ACN/Tris-HCl buffer pH 7.3
Protocol: The spectroscopic properties of Rh-PK and its interactions with various metal ions were evaluated in acetonitrile (ACN)/Tris-HCl buffer (10 mM, pH 7.3, v/v, 3:1). […] The changes in UV-Vis spectra after the addition of various ions are shown in FIG. 2, which is an absorbance spectrum of 100 μM sensor with various metal ions (100 μM for Ni^+2, Cu^+, Cu^+2, Zn^+2, Pb, Fe^+2, Fe^+3, Cr^+3, Hg^+2, Mn^+2, Ag^+, and Co^+2; 200 μM for K^+, Na^+, Ca^2+ and Mg^2+) in the ACN/Tris buffer (10 mM, pH 7.3, v/v 3:1).
When Fe^3+ was added into the solution of Rh-PK, a significant enhancement of fluorescence (>12-fold with 1.0 equiv of Fe^3+) was observed.
The interferences from the other metal ions with Rh-PK in its response to Fe^3+ was examined. […] Each of the 12 metal ions was pre-incubated with Rh-PK before 1 equiv. of Fe^3+ was added, the fluorescence response was then measured.
The stock solution of sensor and metal ions were prepared at the concentration of 1 mM. M. P. Walkees, Mutat. Res., 2003, 533, 107; M. Waisberg, et al., Toxicology, 2003, 192, 95.
The UV-vis. and fluorescence spectra of RhHPA to various possible interfering metal ions and its selectivity for Fe^3+ were examined. See FIG. 6, which is a plot of absorbance dependent on the concentration of Fe^3+ in the range from 0 to 2 equivalents in ACN/Tris-HCl buffer (10 mM, pH 7.3, v/v 2:1); FIG. 7, which is a Job's plot between Fe^3+ and RhHPA, indicating the 1:1 binding mode for sensor and iron(III). […] Addition of Na^+, K^+, Ca^2+, Mg^2+, Cr^3+, […], Hg^2+, Cu^2+, Pb^2+, Zn^2+, Fe^2+, Co^2+, Ni^2+, and Ag^+ exerted little or no effect on the emission of RhHPA, while remarkable fluorescence enhancement was detected upon the addition of Fe^3+ by excitation of the rhodamine fluorophore at 535 nm.
Experiments of iron(III) with other metal ions were investigated by means of the fluorescence response of RhHPA toward Fe^3+ in the presence of various other metal ions such as Na^+, K^+, Ca^2+, Mg^2+, Cr^3+, Hg^2+, Cu^2+, Pb^2+, Zn^2+, Fe^2+, Co^2+, Ni^2+, Cd^2+, and Ag^+. […] for Fe^3+ had no changes with addition of other metal ions. Cu(II) and Zn(II) increased the fluorescence intensity slightly.

[4] = Binding studies of sensor with Fe3+ (Job's plot, titration, EDTA reversibility); conditions: 1:1 sensor-Fe^3+ complex; ACN/Tris-HCl buffer pH 7.3
Protocol: Job's method and UV-vis spectra were applied to study the binding stoichiometry between Rh-PK and Fe^3+ and monitored by the absorbance at 555 nm. […] The binding constant of this complex was calculated following a method reported previously (G. E. Tumambac, et al., Tetrahedron 2004, 60, 11293-11297), using absorption values at […] by the equations described below, and was determined to be 1.54×10^7 […].
The equations below was used to calculate the binding constants with stoichiometry of 1:1. L+S↔LS where L=sensor, S=Fe3+ and LS=sensor-Fe^3+ complex. The apparent binding constant is given by
[formula] Fe is the fraction of L that formed a complex, [LS]e is concentration at equilibrium, [L]0 is the initial concentration. Au, Am, and Ac are the absorbances of solutions of L (before any Fe^3+ was added), during the titration and at saturation, respectively. The concentration of free Fe^3+ at equilibrium, [S]e, is found with the following identity. [S]e=[S]o−[LS]e=[S]o−Fc[L]o The apparent binding constant K can then be calculated from
Reversibility experiments were carried out by adding EDTA to the complex in ACN/Tris-HCl buffer (10 mM, pH 7.3, v/v 3:1). […]
The stoichiometry of RhHPA-Fe^3+ was measured using Job's plot and mole ratio plots methods. B. Valeur, Molecular Fluorescence: Principles and Applications, Wiley-VCH. […] To determine the binding constant of chemosensor, a fluorescence titration of different amounts of Fe^3+ into the acetonitrile solution of sensor was carried out. […] The determination of the binding constant of RhHPA was calculated using the following equation: F−Fmin=[…](Fmax−Fmin)/Kd where F is the observed fluorescence, Fmax is the maximum fluorescence for the RhHPA-Fe^3+ complex at concentration of the equal reacted between sensor and metal cation, Fmin is the fluorescence intensity for occurring RhHPA-Fe^3+.
Absorption enhancement observation at 558 nm was plotted against the molar value of the [Fe^3+]/[Fe^3+]+RhHPA and [Fe^3+]/RhHPA. […] Binding constant of fluorescent sensor “RhHPA” was calculated and it was found as K=1.27×10^7 M^−1. […]

[5] = Effect of pH on fluorescence of sensor and its Fe complex; type: physicochemical; conditions: pH adjusted with HCl/NaOH

Compound: CCN(CC)c1ccc2c(c1)Oc1cc(N(CC)CC)ccc1C21c2ccccc2C(=O)N1/N=C/c1cccc(CO)n1 [RhHPA, (E)-3′,6′-bis(diethylamino)-2-(((6-(hydroxymethyl)pyridin-2-yl)methylene)amino)spiro[isoindoline-1,9′-xanthen]-3-one]
- toxicity for cells ([1]; culture experiments): non-toxic
- cell permeability ([1]; live cells in culture): excellent cell permeability; also recorded: cell permeable
- increase in fluorescent intensity in Fe^3+-treated cells ([2]; 10 μM FeCl3 overnight, then 10 μM RhHPA 30 min): ~8 fold
- fluorescence enhancement in cells ([2]; 10 μM sensor, 30 min, no Fe^3+ supplementation): 4 fold
- change in fluorescence signal, Fe^3+ then chelator ([2]; 20 μM Fe^3+ overnight, then 100 μM SIH, then 10 μM RhHPA, versus Fe(III) supplement): large decrease in fluorescence signal
- change in fluorescence signal with chelator ([2]; 100 μM SIH, non-iron-loaded cells): small decrease in fluorescence signal
- increase in fluorescence emission intensity [3]: ~20 fold
- apparent binding constant [4]: 1.27e+07 M⁻¹
- pH range over which sensor (and Fe complex) fluorescence is stable / working pH range [5]: 5-9 and 5 to 9
